Laboratory results taken from patent US20040002545A1, “Thiazole derivatives of 2-methoxyimino-2-(pyridinyloxymethyl)-phenyl-acetamides useful as fungicides” (priority 2003, published 2004).

Key:
Type in all cases: in vivo
[1] = system: Puccinia recondita—PUCCRT; assay: Wheat brown rust greenhouse test, curative and protectant; conditions: for PUCCRT 3DC: 3DC (curative); for PUCCRT 7DP: 7DP (protectant)
Excerpt: (§1) Pathogen propagation and host inoculation. Plants were inoculated with various pathogens 1-4 days before compound application (curative tests) and 1-7 days after compound application (protectant tests). For all wheat trials, compounds were applied at growth stage 1.2, when the second leaf was expanded to about ½ of its final size (12 days after seeds were first watered). Information on the growth stages of other plant species at the time compound application and on the propagation and inoculation procedures associated with each pathogen is given below.
PUCCRT: Spores of the obligate pathogen PUCCRT were collected from infected plants with a vacuum apparatus and stored at 4° C. Approximately 0.1 g of fresh spores (stored at 4° C. for less than 30 days) was mixed with several drops of Tween 20. The thick spore paste was diluted to 100 ml with water and sprayed to run-off on wheat seed seedlings. Plants inoculated with PUCCRT were kept in a 20° C. dew chamber overnight and then transferred to a 20° C. growth chamber where symptoms developed in 8-9 days.

[2] = system: Septoria nodorum—LEPTNO; assay: Wheat glume blotch greenhouse test, curative and protectant; set-up: scale not given here; conditions: for LEPTNO 3DC: 3DC (curative); for LEPTNO 7DP: 7DP (protectant)
Excerpt: as §1
(§2) LEPTNO: Fresh inoculum was prepared by streaking PDA plates with spore exudates from an older plate using a sterile spatula. The plates were incubated at 18° C. under black lights and typically produced large quantities of spores in pink exudate in 6-7 days. A small amount of tap water was poured onto several plates and spores were collected by scraping the exudates off the PDA surface into the water. The spore solutions were combined in a large beaker, diluted with 200-300 ml of water and filtered through a 180 u mesh screen. The spore concentration was determined using a hemacytometer and water was added to obtain a final concentration of 10^7 spores/ml. Approximately 3 large drops of Tween 20 were added for each 100 ml of volume and the spore solution was sprayed to run-off on wheat seedlings. Inoculated plants were placed in a 20° C. dew chamber overnight, then moved to a 20° C. greenhouse where they were continually misted (12 seconds of mist every minute) until disease symptoms were fully developed (8-10 days).

[3] = system: Erysiphe graminis—ERYSGT; assay: Wheat powdery mildew greenhouse test, curative and protectant; set-up: scale not given here; conditions: for ERYSGT 3DC: 3DC (curative); for ERYSGT 7DP: 7DP (protectant)
Excerpt: as §1
ERYSGT: Wheat seedlings were infected with fresh spores from the obligate pathogen ERYSGT by shaking heavily infected wheat plants over them. Plants that had been dusted with ERYSGT spores were incubated in the greenhouse at 22° C. until disease symptoms had fully developed (usually 7 days).

[4] = system: Septoria tritici—SEPTTR; assay: Wheat leaf blotch greenhouse test, curative and protectant; set-up: scale not given here; conditions: for SEPTTR 3DC: 3DC (curative); for SEPTTR 7DP: 7DP (protectant)
Excerpt: as §1
SEPTTR: Fresh inoculum is prepared in a manner similar to that described for LEPTNO. In this case, a brownish layer of spores covers the entire surface of the PDA plate and only a few plates are needed to obtain a large number of spores. After incubation overnight in the 20° C. dew chamber, inoculated plants were continually misted for 3 days in a 20° C. greenhouse, then grown at 20° C. without mist until disease symptoms had fully developed (usually about 10 days).
as §2

Compound | PUCCRT 3DC ([1]; rate 15.5 g ai/ha) | PUCCRT 7DP ([1]; rate 15.5 g ai/ha) | PUCCRT 3DC ([1]; rate 31.3 g ai/ha) | PUCCRT 7DP ([1]; rate 31.3 g ai/ha) | PUCCRT 3DC ([1]; rate 62.5 g ai/ha) | PUCCRT 7DP ([1]; rate 62.5 g ai/ha) | PUCCRT 3DC ([1]; rate 125 g ai/ha) | PUCCRT 7DP ([1]; rate 125 g ai/ha) | LEPTNO 3DC ([2]; rate 15.5 g ai/ha) | LEPTNO 7DP ([2]; rate 15.5 g ai/ha) | LEPTNO 3DC ([2]; rate 31.3 g ai/ha) | LEPTNO 7DP ([2]; rate 31.3 g ai/ha) | LEPTNO 3DC ([2]; rate 62.5 g ai/ha) | LEPTNO 7DP ([2]; rate 62.5 g ai/ha) | LEPTNO 3DC ([2]; rate 125 g ai/ha) | LEPTNO 7DP ([2]; rate 125 g ai/ha) | SEPTTR 3DC ([4]; rate 15.5 g ai/ha) | SEPTTR 7DP ([4]; rate 15.5 g ai/ha) | SEPTTR 3DC ([4]; rate 31.3 g ai/ha) | SEPTTR 7DP ([4]; rate 31.3 g ai/ha) | other results
2-[[[3-chloro-5-[5-[3-methylisothiazoly]]-2-pyridinyl]-oxy]methyl]-alpha-(methoxyimino)-N-methylbenzeneacetamide [Compound 1] | 93 | 80 | 99 | 94 | 100 | 100 | 100 | 100 | 58 | 46 | 60 | 50 | 53 | 95 | 71 | 98 | 22 | 53 | 59 | 88 | ERYSGT 3DC ([3]; rate 15.5 g ai/ha): 88; ERYSGT 7DP ([3]; rate 15.5 g ai/ha): 51; ERYSGT 3DC ([3]; rate 31.3 g ai/ha): 92; ERYSGT 7DP ([3]; rate 31.3 g ai/ha): 45; ERYSGT 3DC ([3]; rate 62.5 g ai/ha): 94; ERYSGT 7DP ([3]; rate 62.5 g ai/ha): 88; ERYSGT 3DC ([3]; rate 125 g ai/ha): 97; ERYSGT 7DP ([3]; rate 125 g ai/ha): 100; SEPTTR 3DC ([4]; rate 62.5 g ai/ha): 85; SEPTTR 7DP ([4]; rate 62.5 g ai/ha): 76; SEPTTR 3DC ([4]; rate 125 g ai/ha): 99; SEPTTR 7DP ([4]; rate 125 g ai/ha): 91
CNC(=O)C(=NOC)c1ccccc1COc1ncc(-c2snc(C)c2Br)cc1C [Compound 2, 2-[[[3-methyl-5-[5-[4-bromo-3-methylisothiazolyl]]-2-pyridinyl]-oxy]methyl]-alpha-(methoxyimino)-N-methylbenzeneacetamide] | 50 | 100 | 63 | 100 | 93 | 100 | 93 | 100 | 65 | 65 | 73 | 79 | 47 | 84 | 67 | 98 | 97 | 85 | 83 | 85 | SEPTTR 3DC ([4]; rate 62.5 g ai/ha): 90; SEPTTR 7DP ([4]; rate 62.5 g ai/ha): 96; SEPTTR 3DC ([4]; rate 125 g ai/ha): 95; SEPTTR 7DP ([4]; rate 125 g ai/ha): 97
